Measurements reported in PMC8673672, “Synthesis and evaluation of radiogallium-labeled long-chain fatty acid derivatives as myocardial metabolic imaging agents” (PLoS ONE, 2021).

Experiments:
[1] = parameters: method as in PMID 31869735; conditions: Ga complex; cited from earlier work
[2] = Biodistribution study in normal mice; type: in vivo; conditions: ddY mice, i.v.
Protocol: The animal experimental protocols used were approved by the Committee on Animal Experimentation of Kanazawa University (AP-204165). All experiments with animals were conducted in strict accordance with the Guidelines for the Care and Use of Laboratory Animals of Kanazawa University. Mice were housed together in individually ventilated cages with three mice per cage. The animals were housed at 23°C with a 12 h light/dark schedule with free access to a standardized mouse diet and provided drinking water ad libitum water. Autoclaved wood chips were applied as bedding material. The behavior of the mice during the experimental period was normal. Seventy-five ddY mice (male; 6-week-old; 29–33 g) were purchased from Japan SLC Inc., Hamamatsu, Japan. The mice were randomly divided into five groups (n = 15 mice per group) with five different time points for each group (n = 3 mice per time point).
Radiotracers, [^67Ga]5, [^67Ga]6, [^67Ga]7, or [^67Ga]8, in saline containing 5% ethanol and 0.1% tween-80, or [^123I]BMIPP (74 kBq/100 μL, respectively) was intravenously injected into mice via the tail. The ddY mice were sacrificed by decapitation at 0.5, 2, 5, 20, and 60 min. Tissues of interest were removed and weighed. The radioactivity of the tissues was determined using an auto well gamma counter. The data were expressed as percent injected dose per gram tissue (%ID/g).

**Q.** For `O=C([O-])CN1CCN(CC(=O)[O-])CCN(CC(=O)O)CCN(CC(=O)[O-])CC1.[Ga+3]` [Ga-DOTA], which “Stability constant (log K)” value [1] is on record?
**A.** 21.3

**Q.** Which Blood radioactivity ([2]; 0.5 min after injection) does the source give for `CC(CCCCCCCCCCCCc1ccc([123I])cc1)CC(=O)O` (stereo not drawn) [[^123I]BMIPP, β-methyl [^123I]iodophenyl-pentadecanoic acid] here?
**A.** 20.30 (1.55) %ID/g

**Q.** And the Bone radioactivity ([2]; 0.5 min after injection)?
**A.** 2.63 (0.33) %ID/g

**Q.** What about the Brain radioactivity ([2]; 0.5 min after injection) of the same compound?
**A.** 0.51 (0.11) %ID/g

**Q.** And the Kidney radioactivity ([2]; 0.5 min after injection)?
**A.** 5.21 (0.42) %ID/g

**Q.** What about the Large intestine radioactivity ([2]; 0.5 min after injection) of the same compound?
**A.** 0.42 (0.07) %ID/g

**Q.** What about the Liver radioactivity ([2]; 0.5 min after injection) of the same compound?
**A.** 12.44 (2.40) %ID/g

**Q.** And the Lung radioactivity ([2]; 0.5 min after injection)?
**A.** 24.09 (4.19) %ID/g

**Q.** And the Muscle radioactivity ([2]; 0.5 min after injection)?
**A.** 2.85 (0.69) %ID/g

**Q.** And the Pancreas radioactivity ([2]; 0.5 min after injection)?
**A.** 2.43 (0.68) %ID/g

**Q.** What about the Small intestine radioactivity ([2]; 0.5 min after injection) of the same compound?
**A.** 0.91 (0.15) %ID/g

**Q.** What about the Spleen radioactivity ([2]; 0.5 min after injection) of the same compound?
**A.** 4.91 (1.27) %ID/g

**Q.** What about the Stomach radioactivity ([2]; 0.5 min after injection) of the same compound?
**A.** 0.60 (0.11) %ID/organ

**Q.** What about the Heart uptake ([2]; 0.5 min after injection (initial myocardial uptake)) of the same compound?
**A.** 21.36 (2.73) %ID/g

**Q.** And the Blood radioactivity ([2]; 2 min after injection)?
**A.** 6.01 (0.74) %ID/g

**Q.** What about the Bone radioactivity ([2]; 2 min after injection) of the same compound?
**A.** 1.97 (0.03) %ID/g

**Q.** And the Brain radioactivity ([2]; 2 min after injection)?
**A.** 0.22 (0.03) %ID/g

**Q.** What about the Heart uptake ([2]; 2 min after injection) of the same compound?
**A.** 27.60 (3.15) %ID/g

**Q.** And the Kidney radioactivity ([2]; 2 min after injection)?
**A.** 5.27 (0.61) %ID/g

**Q.** And the Large intestine radioactivity ([2]; 2 min after injection)?
**A.** 0.68 (0.14) %ID/g

**Q.** And the Liver radioactivity ([2]; 2 min after injection)?
**A.** 21.35 (0.89) %ID/g

**Q.** What about the Lung radioactivity ([2]; 2 min after injection) of the same compound?
**A.** 15.88 (1.94) %ID/g

**Q.** And the Muscle radioactivity ([2]; 2 min after injection)?
**A.** 3.24 (0.49) %ID/g

**Q.** And the Pancreas radioactivity ([2]; 2 min after injection)?
**A.** 6.11 (1.90) %ID/g

**Q.** And the Small intestine radioactivity ([2]; 2 min after injection)?
**A.** 1.33 (0.23) %ID/g

**Q.** What about the Spleen radioactivity ([2]; 2 min after injection) of the same compound?
**A.** 3.76 (1.18) %ID/g

**Q.** And the Stomach radioactivity ([2]; 2 min after injection)?
**A.** 0.70 (0.17) %ID/organ

**Q.** And the Blood radioactivity ([2]; 5 min after injection)?
**A.** 6.75 (1.07) %ID/g

**Q.** What about the Bone radioactivity ([2]; 5 min after injection) of the same compound?
**A.** 2.29 (0.27) %ID/g

**Q.** What about the Brain radioactivity ([2]; 5 min after injection) of the same compound?
**A.** 0.25 (0.03) %ID/g

**Q.** What about the Heart uptake ([2]; 5 min after injection) of the same compound?
**A.** 28.03 (5.37) %ID/g

**Q.** And the Kidney radioactivity ([2]; 5 min after injection)?
**A.** 5.93 (1.23) %ID/g

**Q.** And the Large intestine radioactivity ([2]; 5 min after injection)?
**A.** 0.66 (0.11) %ID/g

**Q.** What about the Liver radioactivity ([2]; 5 min after injection) of the same compound?
**A.** 16.33 (4.41) %ID/g

**Q.** What about the Lung radioactivity ([2]; 5 min after injection) of the same compound?
**A.** 16.87 (3.08) %ID/g

**Q.** And the Muscle radioactivity ([2]; 5 min after injection)?
**A.** 3.42 (1.06) %ID/g

**Q.** And the Pancreas radioactivity ([2]; 5 min after injection)?
**A.** 5.66 (4.30) %ID/g

**Q.** And the Small intestine radioactivity ([2]; 5 min after injection)?
**A.** 1.39 (0.27) %ID/g

**Q.** What about the Spleen radioactivity ([2]; 5 min after injection) of the same compound?
**A.** 3.09 (1.26) %ID/g

**Q.** What about the Stomach radioactivity ([2]; 5 min after injection) of the same compound?
**A.** 0.95 (0.28) %ID/organ

**Q.** What about the Blood radioactivity ([2]; 20 min after injection) of the same compound?
**A.** 10.84 (0.20) %ID/g

**Q.** And the Bone radioactivity ([2]; 20 min after injection)?
**A.** 2.66 (0.22) %ID/g

**Q.** What about the Brain radioactivity ([2]; 20 min after injection) of the same compound?
**A.** 0.43 (0.07) %ID/g

**Q.** What about the Heart uptake ([2]; 20 min after injection) of the same compound?
**A.** 23.41 (3.39) %ID/g

**Q.** What about the Kidney radioactivity ([2]; 20 min after injection) of the same compound?
**A.** 8.03 (0.09) %ID/g

**Q.** And the Large intestine radioactivity ([2]; 20 min after injection)?
**A.** 1.20 (0.04) %ID/g

**Q.** What about the Liver radioactivity ([2]; 20 min after injection) of the same compound?
**A.** 6.54 (0.43) %ID/g

**Q.** What about the Lung radioactivity ([2]; 20 min after injection) of the same compound?
**A.** 16.21 (1.50) %ID/g

**Q.** What about the Muscle radioactivity ([2]; 20 min after injection) of the same compound?
**A.** 3.51 (0.21) %ID/g

**Q.** What about the Pancreas radioactivity ([2]; 20 min after injection) of the same compound?
**A.** 9.80 (3.25) %ID/g

**Q.** What about the Small intestine radioactivity ([2]; 20 min after injection) of the same compound?
**A.** 1.97 (0.11) %ID/g

**Q.** And the Spleen radioactivity ([2]; 20 min after injection)?
**A.** 1.73 (0.55) %ID/g

**Q.** What about the Stomach radioactivity ([2]; 20 min after injection) of the same compound?
**A.** 1.06 (0.05) %ID/organ

**Q.** And the Blood radioactivity ([2]; 60 min after injection)?
**A.** 10.38 (2.03) %ID/g

**Q.** What about the Bone radioactivity ([2]; 60 min after injection) of the same compound?
**A.** 2.42 (0.33) %ID/g

**Q.** And the Brain radioactivity ([2]; 60 min after injection)?
**A.** 0.39 (0.04) %ID/g

**Q.** And the Heart uptake ([2]; 60 min after injection)?
**A.** 20.92 (3.67) %ID/g

**Q.** What about the Kidney radioactivity ([2]; 60 min after injection) of the same compound?
**A.** 6.24 (0.62) %ID/g

**Q.** What about the Large intestine radioactivity ([2]; 60 min after injection) of the same compound?
**A.** 1.20 (0.15) %ID/g

**Q.** What about the Liver radioactivity ([2]; 60 min after injection) of the same compound?
**A.** 4.34 (0.61) %ID/g

**Q.** What about the Lung radioactivity ([2]; 60 min after injection) of the same compound?
**A.** 13.11 (3.05) %ID/g

**Q.** And the Muscle radioactivity ([2]; 60 min after injection)?
**A.** 3.87 (0.80) %ID/g

**Q.** What about the Pancreas radioactivity ([2]; 60 min after injection) of the same compound?
**A.** 8.04 (3.89) %ID/g

**Q.** What about the Small intestine radioactivity ([2]; 60 min after injection) of the same compound?
**A.** 1.88 (0.29) %ID/g

**Q.** What about the Spleen radioactivity ([2]; 60 min after injection) of the same compound?
**A.** 1.68 (0.81) %ID/g

**Q.** What about the Stomach radioactivity ([2]; 60 min after injection) of the same compound?
**A.** 1.06 (0.17) %ID/organ
